Measurements published in ChEMBL document CHEMBL1201862, “PubChem BioAssay data set” (2004).
Activity calls are given as the source filed them.

What was measured:
[1] = target: Histone-lysine N-methyltransferase NSD2 (Homo sapiens, UniProt O96028); assay type: biochemical
[2] = toxicity toward HepG2 liver cells – cell-based, plate reader, cherry-pick, antagonist series, cytotoxicity control, dose response (AID 743416); assay type: functional
[3] = blockers of bursicon-stimulated LGR2 cAMP reporter – cell-based, HEK293, CRE-luciferase reporter, cherry pick, set 2, dose response (AID 743343); assay type: functional;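 note: transfected cells were stimulated with diluted bursicon conditioned medium after compound addition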
[4] = blockade of melanocortin 4 receptor signaling – cell-based, plate reader, cherry pick, counter-screen for LGR2 antagonist project, dose response (AID 743444); assay type: functional;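 note: transfected HEK 293 cells stimulated with alpha-MSH peptide; potency of inhibitors of the alpha-MSH evoked signal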
[5] = A549 cell cytotoxicity, dose response, cytotoxicity control, plate reader, cherry-pick, antagonist series (AID 743412); assay type: functional, cell-based
[6] = Dd2 parasite growth inhibition in erythrocytes – SYBR Green, dry powder samples, set 9, dose response (AID 1159568); assay type: functional, cell-based
[7] = target: NAD-dependent protein deacylase sirtuin-5, mitochondrial (Homo sapiens, UniProt Q9NXA8); assay: sirtuin-5 deacylation blockers, concentration series – biochemical, fluorescence imaging, cherry-pick, set 5, dose response (AID 720591);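 note: desuccinylation of succinyl peptide AMC substrate read as fluorescence after trypsin release; potency of inhibitors that lower fluorescence and may act on trypsin instead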
Sequence of NAD-dependent protein deacylase sirtuin-5, mitochondrial (Q9NXA8 whole entry): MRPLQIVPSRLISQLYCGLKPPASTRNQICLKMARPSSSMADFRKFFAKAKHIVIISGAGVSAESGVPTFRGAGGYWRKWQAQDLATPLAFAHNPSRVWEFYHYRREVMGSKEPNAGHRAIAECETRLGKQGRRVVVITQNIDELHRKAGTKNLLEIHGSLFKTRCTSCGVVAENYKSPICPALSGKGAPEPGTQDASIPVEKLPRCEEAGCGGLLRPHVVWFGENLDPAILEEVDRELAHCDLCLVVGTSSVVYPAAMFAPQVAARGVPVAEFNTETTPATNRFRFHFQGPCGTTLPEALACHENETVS

[8] = target: RNA-editing ligase 1, mitochondrial (Trypanosoma brucei brucei, UniProt P86926); assay: inhibition of trypanosome RNA editing ligase – biochemical, fluorescence, Trypanosoma brucei, dose response (AID 1117295); assay type: functional
Sequence of RNA-editing ligase 1, mitochondrial (P86926 whole entry): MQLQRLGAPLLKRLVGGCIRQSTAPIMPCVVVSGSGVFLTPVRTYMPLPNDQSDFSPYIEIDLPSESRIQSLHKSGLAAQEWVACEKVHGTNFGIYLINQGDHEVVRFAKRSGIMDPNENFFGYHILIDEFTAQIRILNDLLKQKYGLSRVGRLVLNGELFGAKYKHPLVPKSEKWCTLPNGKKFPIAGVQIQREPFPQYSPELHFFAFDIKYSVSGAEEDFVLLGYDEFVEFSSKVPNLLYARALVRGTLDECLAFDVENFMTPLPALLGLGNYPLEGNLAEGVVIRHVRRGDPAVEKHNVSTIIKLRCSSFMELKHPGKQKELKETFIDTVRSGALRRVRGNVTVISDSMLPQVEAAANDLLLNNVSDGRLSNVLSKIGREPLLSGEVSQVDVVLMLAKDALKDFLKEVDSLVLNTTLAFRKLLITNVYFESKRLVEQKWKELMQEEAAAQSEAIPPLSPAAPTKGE

Kallikrein-7 = Kallikrein-7 (Homo sapiens, UniProt P49862); assay: Fluorescence Intensity-based biochemical primary high throughput dose response assay to identify activators of kallikrein-7 (K7) zymogen.
Sequence of Kallikrein-7 (P49862 whole entry): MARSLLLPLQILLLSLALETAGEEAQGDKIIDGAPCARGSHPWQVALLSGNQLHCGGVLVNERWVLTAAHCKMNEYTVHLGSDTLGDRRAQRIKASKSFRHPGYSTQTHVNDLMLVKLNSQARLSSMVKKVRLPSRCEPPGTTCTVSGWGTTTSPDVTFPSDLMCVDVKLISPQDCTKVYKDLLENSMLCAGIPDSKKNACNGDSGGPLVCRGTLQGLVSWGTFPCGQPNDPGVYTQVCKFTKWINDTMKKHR

[9] = viability inhibitors of stage V gametocytes – luminescence, dose response (AID 1117278); assay type: functional, cell-based;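 note: gametocytes exposed to compound for 24 hours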
[10] = viability loss in human Jurkat cells – cell-based, luminescence, cytotoxicity control for P. falciparum gametocyte viability project, dose response (AID 1117277); assay type: functional;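 note: potency reflects loss of cellular ATP meaning fewer viable cells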
[11] = T. cruzi growth inhibition in host cells, dose response, cell-based, plate reader, dry powder, set 2 (AID 652275); assay type: functional
[12] = growth inhibition of yeast DHODH-expressing 3D7 parasites – SYBR Green, dry powder samples, dose response (AID 1159570); assay type: functional, cell-based;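 note: parasite growth measured after 72 hours of compound exposure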
[13] = COV434 cell viability loss – plate reader, dry powder, SA7, cytotoxicity control for PAX8 inhibitor project, dose response (AID 743145); assay type: functional, cell-based
[14] = PAX8-dependent cell viability loss – plate reader, dry powder, dose response (AID 743049); assay type: functional, cell-based
Paired box protein Pax-8 = Paired box protein Pax-8 (Homo sapiens, UniProt Q06710); assay: PAX8 transcriptional activity inhibition in RMG-I – RMG-I cells, luciferase, cherry-pick, dose response (AID 687027); assay type: functional, cell-based;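 note: luciferase reporter driven by Pax8 target thyroperoxidase promoter measured by SteadyGlo luminescence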
Sequence of Paired box protein Pax-8 (Q06710 whole entry): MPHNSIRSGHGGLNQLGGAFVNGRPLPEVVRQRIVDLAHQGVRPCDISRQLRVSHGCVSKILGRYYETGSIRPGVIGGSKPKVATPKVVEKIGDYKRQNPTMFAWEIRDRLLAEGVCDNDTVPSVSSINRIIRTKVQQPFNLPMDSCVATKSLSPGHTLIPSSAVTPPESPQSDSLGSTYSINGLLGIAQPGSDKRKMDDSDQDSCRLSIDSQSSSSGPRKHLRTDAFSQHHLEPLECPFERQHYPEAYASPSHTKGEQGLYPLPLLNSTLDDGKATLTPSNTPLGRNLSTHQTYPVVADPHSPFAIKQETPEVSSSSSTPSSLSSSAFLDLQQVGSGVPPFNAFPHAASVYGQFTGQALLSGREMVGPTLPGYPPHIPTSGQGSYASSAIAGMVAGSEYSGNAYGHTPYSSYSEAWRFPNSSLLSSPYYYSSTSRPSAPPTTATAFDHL

[15] = P. falciparum Dd2 growth inhibitors, dose response, SYBR Green, cherry-picked samples (AID 1159567); assay type: functional, cell-based
[16] = Dd2 malaria parasite growth inhibition potency – SYBR Green, dry powder samples, dose response (AID 1159566); assay type: functional, cell-based;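 note: potency for growth inhibition with lower SYBR green DNA signal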
[17] = COV362 cell viability loss – plate reader, dry powder, SA12, cytotoxicity control for PAX8 inhibitor project, dose response (AID 743144); assay type: functional, cell-based
[18] = growth inhibition of PfATP4-mutant resistant parasites – NITD609-resistant line, SYBR Green, dry powder, dose response (AID 1159571); assay type: functional, cell-based;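 note: parasites synchronized at ring stage by sorbitol before testing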
[19] = inhibitors acting on PAX2 in cells – cell-based, plate reader, dry powder samples, selectivity assay for PAX8 inhibitor project, dose response (AID 743048); assay type: functional;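 note: HEK293 cells carrying a WT1 promoter luciferase reporter driven by expressed Pax2; potency is for inhibition of Pax2 driven reporter signal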
[20] = OVCAR4 cell viability loss – plate reader, dry powder, SA11, cytotoxicity control for PAX8 inhibitor project, dose response (AID 743150); assay type: functional, cell-based; details: OVCAR-4
[21] = PAX5 cellular inhibition readout – cell-based, plate reader, dry powder samples, selectivity assay for PAX8 inhibitor project, dose response (AID 743047); assay type: functional;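 note: HEK293 cells carrying a Pax5 driven CD19 promoter luciferase reporter; potency of inhibitors that lower reporter luminescence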
Vero = assay: mammalian cell viability reduction – secondary assay, cytotoxicity control for West Nile virus antiviral project, dose response (AID 1650); assay type: functional; details: Chlorocebus sabaeus
14-3-3 protein gamma = 14-3-3 protein gamma (Homo sapiens, UniProt P61981); assay: modulators of 14-3-3 gamma client binding – dose response (AID 711); assay type: functional
Sequence of 14-3-3 protein gamma (P61981 whole entry): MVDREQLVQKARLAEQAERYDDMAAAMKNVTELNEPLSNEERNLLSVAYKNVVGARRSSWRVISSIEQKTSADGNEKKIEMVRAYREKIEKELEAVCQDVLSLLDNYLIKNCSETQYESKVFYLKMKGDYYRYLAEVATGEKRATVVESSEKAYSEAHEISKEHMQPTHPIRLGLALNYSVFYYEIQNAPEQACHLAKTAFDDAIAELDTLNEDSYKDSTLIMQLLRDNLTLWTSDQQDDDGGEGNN

Sequence of Histone-lysine N-methyltransferase NSD2 (O96028 whole entry): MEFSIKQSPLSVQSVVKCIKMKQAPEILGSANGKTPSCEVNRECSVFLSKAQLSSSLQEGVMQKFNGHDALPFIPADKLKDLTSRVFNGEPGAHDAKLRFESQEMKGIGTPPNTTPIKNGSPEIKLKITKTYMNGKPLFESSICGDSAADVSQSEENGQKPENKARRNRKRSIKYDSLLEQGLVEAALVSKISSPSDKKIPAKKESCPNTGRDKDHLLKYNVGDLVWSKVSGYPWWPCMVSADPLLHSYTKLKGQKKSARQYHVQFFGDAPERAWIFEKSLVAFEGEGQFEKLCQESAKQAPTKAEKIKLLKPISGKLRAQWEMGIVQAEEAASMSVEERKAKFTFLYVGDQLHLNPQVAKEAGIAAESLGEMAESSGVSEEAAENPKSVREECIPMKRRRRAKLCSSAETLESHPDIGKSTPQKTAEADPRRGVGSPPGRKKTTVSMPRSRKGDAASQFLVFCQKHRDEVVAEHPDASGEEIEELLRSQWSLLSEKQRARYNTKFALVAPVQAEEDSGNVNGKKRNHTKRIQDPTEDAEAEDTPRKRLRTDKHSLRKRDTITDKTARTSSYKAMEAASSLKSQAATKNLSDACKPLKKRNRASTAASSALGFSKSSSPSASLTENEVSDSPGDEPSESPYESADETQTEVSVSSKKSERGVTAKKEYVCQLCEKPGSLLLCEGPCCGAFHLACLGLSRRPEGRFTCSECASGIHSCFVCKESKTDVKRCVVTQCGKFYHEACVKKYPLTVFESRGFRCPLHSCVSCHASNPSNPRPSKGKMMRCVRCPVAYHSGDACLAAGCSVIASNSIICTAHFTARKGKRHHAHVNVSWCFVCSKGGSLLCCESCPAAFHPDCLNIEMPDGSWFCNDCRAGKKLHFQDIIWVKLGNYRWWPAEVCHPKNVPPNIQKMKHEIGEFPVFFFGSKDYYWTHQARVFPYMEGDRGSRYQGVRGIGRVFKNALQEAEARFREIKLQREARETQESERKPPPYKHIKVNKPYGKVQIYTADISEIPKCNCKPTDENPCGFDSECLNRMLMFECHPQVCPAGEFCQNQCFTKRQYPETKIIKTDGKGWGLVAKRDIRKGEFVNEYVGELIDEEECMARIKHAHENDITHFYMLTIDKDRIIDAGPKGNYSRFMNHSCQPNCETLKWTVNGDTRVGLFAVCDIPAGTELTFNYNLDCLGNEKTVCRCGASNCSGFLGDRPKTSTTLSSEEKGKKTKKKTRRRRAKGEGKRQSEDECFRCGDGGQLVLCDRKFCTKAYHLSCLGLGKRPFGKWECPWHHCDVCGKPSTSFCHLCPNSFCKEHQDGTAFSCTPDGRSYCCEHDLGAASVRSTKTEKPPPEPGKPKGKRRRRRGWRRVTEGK

CCOc1ccc2[nH]c3c(NCCN(CC)CC)ncnc3c2c1
AC50 [1]: 3.43 µM (active)

COc1ccc2nc(-c3ccccn3)ccc2c1
AC50 [2]: 29.3 µM (active) | AC50 [3]: 9.32 µM (active) | AC50 [4]: 13.4 µM (active) | AC50 [5]: > 52 µM (inactive)

C[C@@H]1CN([C@H](C)CO)C(=O)c2cc(N(C)C)ccc2O[C@@H](C)CCCCO[C@H]1CN(C)S(=O)(=O)c1ccc(F)cc1
AC50 [6]: 10.5 µM (active)

CCCCC[C@H]1CN(Cc2ccccc2)C(=O)[C@@H]1CC(=O)NCc1ccccc1
AC50 [7]: 14.9 µM (active)

COC(=O)C1=C(C)N(Cc2ccc(C(F)(F)F)cc2)C(NCc2ccccc2C(F)(F)F)=NC1c1ccc(F)cc1 (configuration not stated)
IC50 [8]: > 96.6 µM (inactive)

CN1CCN(C(=O)c2cc3nc(-c4ccco4)cc(C(F)(F)F)n3n2)CC1
EC50 (Kallikrein-7): 11.3 µM (inactive)

Cc1nnc(NC(=O)c2ccc(S(=O)(=O)N3CCc4ccccc4C3)cc2)o1
IC50 [9]: > 109 µM (inactive) | IC50 [10]: 80.6 µM (inactive)

Cc1ccc2nc(N3C(=O)C(O)=C(C(=O)c4ccc(C)o4)C3c3ccc(O)cc3)sc2c1 (configuration not stated)
AC50 [7]: 15.1 µM (active)

CN(C)C(=O)c1cccc(-c2ccc([C@H]3[C@H](CO)N4CCCCN(C(=O)C5CCC5)C[C@@H]34)cc2)c1
AC50 [11]: 0.296 µM (active)

Cc1ccc(C(C)C)c(OCCNCCc2ccccc2)c1
IC50 [8]: > 96.6 µM (inactive)

CCCC#Cc1ccc([C@H]2[C@@H](CO)N(C(=O)C3CCCCC3)[C@H]2C#N)cc1
AC50 [12]: 0.996 µM (active) | AC50 [13]: 0.000367 µM (active) | AC50 [14]: 12.2 µM (active) | AC50 (Paired box protein Pax-8): 1.55 µM (active) | AC50 [15]: 1.42 µM (active) | AC50 [16]: 0.541 µM (active) | AC50 [17]: 86.4 pM (active) | AC50 [18]: 2.55 µM (active) | AC50 [19]: 26.7 µM (active) | AC50 [20]: 22.8 µM (active) | AC50 [21]: 19.2 µM (active)

CCN(CC)CCNCC1C(=O)O[C@@H]2C[C@@]3(C)CCC[C@H](C)C3=C[C@H]12 (some centres not stated)
CC50 (Vero): > 100 µM (active)

CCOc1ccc2[nH]c(=O)c(CN(CC3COCCO3)C(=O)C3CC3)cc2c1 (configuration not stated)
IC50 (14-3-3 protein gamma): > 50 µM (not active)
